Target: T1, human estrogen receptor binding to the ERE (estrogen response element from Xenopus Vitellogenen A2 Gene) (Homo sapiens, UniProt P03372)
T1 construct: ubiquitin (gene fusion); host or cells: Saccharomyces cerevisiae strain AF103, YEpE10 plasmid, CUP1 promoter
Assay: Evanescent fiber optic sensor with ERE fiber: binding of Cy5-tagged hER to estrogen response element in the presence of compound (S/C)

T1 sequence (P03372 whole entry, the tested form may be a part): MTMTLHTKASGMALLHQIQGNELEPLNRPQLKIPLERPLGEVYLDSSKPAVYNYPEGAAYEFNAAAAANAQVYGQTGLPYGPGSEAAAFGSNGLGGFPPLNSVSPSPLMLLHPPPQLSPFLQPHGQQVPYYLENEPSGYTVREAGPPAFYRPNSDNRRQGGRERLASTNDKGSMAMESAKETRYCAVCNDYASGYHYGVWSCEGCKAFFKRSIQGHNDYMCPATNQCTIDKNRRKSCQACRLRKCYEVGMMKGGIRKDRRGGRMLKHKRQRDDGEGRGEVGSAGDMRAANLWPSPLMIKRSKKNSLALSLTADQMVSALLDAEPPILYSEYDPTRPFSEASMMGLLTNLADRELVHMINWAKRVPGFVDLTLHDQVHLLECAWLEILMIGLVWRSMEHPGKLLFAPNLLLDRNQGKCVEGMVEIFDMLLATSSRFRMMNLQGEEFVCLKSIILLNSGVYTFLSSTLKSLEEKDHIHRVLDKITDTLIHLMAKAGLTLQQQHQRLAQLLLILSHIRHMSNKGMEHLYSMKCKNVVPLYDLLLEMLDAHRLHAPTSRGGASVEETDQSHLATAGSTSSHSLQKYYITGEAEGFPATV

**Q.** How did the “effect on binding of receptor to the ERE fiber, in words” value (10^−6M compound) turn out when `C[C@H]1CCCC(=O)CCC/C=C/c2cc(O)cc(O)c2C(=O)O1` [zearalenone] was run?
**A.** The value was “increase binding to the ERE more than do the weak biological estrogens”.

**Q.** And the “Response of ERE fiber to hER and 10^−6M compound (control = 3.51)” value (S/C value, control = 3.51)?
**A.** Its value is 5.01.

From patent publication US20070014692A1, “Method and apparatus for measurement of binding between a protein and a nucleotide” (priority 1998, published 2007)
